Assay results as given in the NIST ThermoML archive (doi:10.1016/j.tca.2009.06.015).
Several values for one entry are separate records, joined by “and”; a condition that tells them apart may be missing. Identical values can stand only once. ± gives the expanded uncertainty stated by the source.

What was measured:
[1] = 101 kPa, Liquid; for viscosity: Capillary tube (Ostwald / Ubbelohde) method; for mass density: Vibrating tube method
[2] = refractive index (Na D-line) (dimensionless); conditions: 101.33 kPa, Liquid, Standard Abbe refractometry
[3] = xn = mol fraction of the nth substance listed; conditions: 101 kPa, Liquid; for viscosity: Capillary tube (Ostwald / Ubbelohde) method; for mass density: Vibrating tube method
[4] = refractive index (Na D-line) (dimensionless); xn = mol fraction of the nth substance listed; conditions: 101 kPa, Liquid, Standard Abbe refractometry

CCCCCC(C)O (stereo unspecified) [2-heptanol]
Conditions | mass density, [1] [kg/m3] | refractive index, [2] | viscosity, [1] [mPa·s]
293.15 K | 817.18 ± 0.3 | 1.4206 ± 0.0021 | 6.52 ± 0.072
298.15 K | 813.33 ± 0.3 | 1.4188 ± 0.0021 | 5.33 ± 0.063
303.15 K | 809.44 ± 0.31 | 1.4165 ± 0.0021 | 4.301 ± 0.052
308.15 K | 805.5 ± 0.31 | 1.4143 ± 0.0021 | 3.528 ± 0.044

CCCCC(C)O (stereo unspecified) [2-hexanol]
Conditions | mass density, [1] [kg/m3] | refractive index, [2] | viscosity, [1] [mPa·s]
293.15 K | 814.08 ± 0.3 | 1.4135 ± 0.0021 | 5.155 ± 0.061
298.15 K | 810.14 ± 0.31 | 1.4116 ± 0.0021 | 4.1 ± 0.05
303.15 K | 806.13 ± 0.31 | 1.4093 ± 0.0021 | 3.41 ± 0.04
308.15 K | 802.06 ± 0.31 | 1.4077 ± 0.0021 | 2.819 ± 0.034

CC#N [acetonitrile]
Conditions | mass density, [1] [kg/m3] | refractive index, [2] | viscosity, [1]
293.15 K | 782.04 ± 0.31 | 1.3436 ± 0.0021 | 0.3542 ± 0.004 mPa·s
298.15 K | 776.64 ± 0.31 | 1.3411 ± 0.0021 | 0.3369 ± 0.0038 mPa·s and 0.336 ± 0.004 mPa·s
303.15 K | 771.21 ± 0.31 | 1.339 ± 0.0021 | 0.3254 ± 0.0037 mPa·s and 0.325 ± 0.004 mPa·s
308.15 K | 765.75 ± 0.31 | 1.3371 ± 0.0021 | 0.3082 ± 0.0036 mPa·s and 0.308 ± 0.004 mPa·s

CC#N [acetonitrile] + CCC(C)O
x1 = 1
Conditions | mass density, [3] [kg/m3] | refractive index, [4] | viscosity, [3] [mPa·s]
293.15 K | 782.04 ± 0.31 | 1.3436 ± 0.0021 | 0.3542 ± 0.004
298.15 K | 776.64 ± 0.31 | 1.3411 ± 0.0021 | 0.3369 ± 0.0038
303.15 K | 771.21 ± 0.31 | 1.339 ± 0.0021 | 0.3254 ± 0.0037
308.15 K | 765.75 ± 0.31 | 1.3371 ± 0.0021 | 0.3082 ± 0.0036

CC#N [acetonitrile] + CCCC(C)O
x1 = 1
Conditions | mass density, [3] [kg/m3] | refractive index, [4] | viscosity, [3] [mPa·s]
293.15 K | 782.04 ± 0.31 | 1.3436 ± 0.0021 | 0.3542 ± 0.071
298.15 K | 776.64 ± 0.31 | 1.3411 ± 0.0021 | 0.3369 ± 0.067
303.15 K | 771.21 ± 0.31 | 1.339 ± 0.0021 | 0.3254 ± 0.065
308.15 K | 765.75 ± 0.31 | 1.3371 ± 0.0021 | 0.3082 ± 0.062

CC#N [acetonitrile] + CCCCC(C)O
x1 = 1
Conditions | mass density, [3] [kg/m3] | refractive index, [4] | viscosity, [3] [mPa·s]
293.15 K | 782.04 ± 0.31 | 1.3436 ± 0.0021 | 0.3542 ± 0.004
298.15 K | 776.64 ± 0.31 | 1.3411 ± 0.0021 | 0.336 ± 0.004
303.15 K | 771.21 ± 0.31 | 1.339 ± 0.0021 | 0.325 ± 0.004
308.15 K | 765.75 ± 0.31 | 1.3371 ± 0.0021 | 0.308 ± 0.004

CC#N [acetonitrile] + CCCCCC(C)O
x1 = 1
Conditions | mass density, [3] [kg/m3] | refractive index, [4] | viscosity, [3] [mPa·s]
293.15 K | 782.04 ± 0.31 | 1.3436 ± 0.0021 | 0.3542 ± 0.036
298.15 K | 776.64 ± 0.31 | 1.3411 ± 0.0021 | 0.3369 ± 0.034
303.15 K | 771.21 ± 0.31 | 1.339 ± 0.0021 | 0.3254 ± 0.033
308.15 K | 765.75 ± 0.31 | 1.3371 ± 0.0021 | 0.3082 ± 0.031

CCC(C)O (stereo unspecified) [butan-2-ol]
Conditions | mass density, [1] [kg/m3] | refractive index, [2] | viscosity, [1] [mPa·s]
293.15 K | 806.57 ± 0.31 | 1.3966 ± 0.0021 | 3.912 ± 0.046
298.15 K | 802.56 ± 0.31 | 1.3946 ± 0.0021 | 3.132 ± 0.039
303.15 K | 798.26 ± 0.31 | 1.3924 ± 0.0021 | 2.534 ± 0.029
308.15 K | 793.96 ± 0.31 | 1.3905 ± 0.0021 | 2.172 ± 0.024

CCCC(C)O (stereo unspecified) [pentan-2-ol]
Conditions | mass density, [1] [kg/m3] | refractive index, [2] | viscosity, [1] [mPa·s]
293.15 K | 809.29 ± 0.31 | 1.406 ± 0.0021 | 4.298 ± 0.05
298.15 K | 805.24 ± 0.34 | 1.4045 ± 0.0039 | 3.478 ± 0.059

CC(C)O [propan-2-ol]
Conditions | mass density, [1] [kg/m3] | refractive index, [2] | viscosity, [1] [mPa·s]
293.15 K | 785.19 ± 0.31 | 1.3766 ± 0.0021 | 2.351 ± 0.024
298.15 K | 780.98 ± 0.31 | 1.3745 ± 0.0021 | 2.044 ± 0.022
303.15 K | 776.71 ± 0.31 | 1.3724 ± 0.0021 | 1.758 ± 0.019
308.15 K | 772.36 ± 0.31 | 1.3703 ± 0.0021 | 1.532 ± 0.017

CC(C)O [propan-2-ol] + CC#N
x2 = 0
Conditions | mass density, [3] [kg/m3] | refractive index, [4] | viscosity, [3] [mPa·s]
293.15 K | 785.19 ± 0.31 | 1.3766 ± 0.0021 | 2.351 ± 0.024
298.15 K | 780.98 ± 0.31 | 1.3745 ± 0.0021 | 2.044 ± 0.022
303.15 K | 776.71 ± 0.31 | 1.3724 ± 0.0021 | 1.758 ± 0.019
308.15 K | 772.36 ± 0.31 | 1.3703 ± 0.0021 | 1.532 ± 0.017
